In patent publication US4954513A, “Leukotriene antagonists” (SmithKline Beecham Corporation, priority 1988, dated 1990):

Each compound was assayed against T1, leukotriene induced contraction of guinea pig tracheal tissues (Cavia porcellus, UniProt Q2NNR5) (assay: Inhibition of leukotriene (LTD4) induced contraction of guinea pig tracheal spiral strips in vitro). Details: LTD4 concentration-response on guinea pig tracheal strips, 30 min pretreatment with test compound, meclofenamic acid 1uM; EC30 shift; current average data; read-out: -LogKB (converted).
T1 construct: Guinea pig (adult male albino Hartley strain) tracheal spiral strips; from tissue; host or cells: guinea pig (adult male albino Hartley) tracheal spiral strips
T1 sequence (Q2NNR5 1-340): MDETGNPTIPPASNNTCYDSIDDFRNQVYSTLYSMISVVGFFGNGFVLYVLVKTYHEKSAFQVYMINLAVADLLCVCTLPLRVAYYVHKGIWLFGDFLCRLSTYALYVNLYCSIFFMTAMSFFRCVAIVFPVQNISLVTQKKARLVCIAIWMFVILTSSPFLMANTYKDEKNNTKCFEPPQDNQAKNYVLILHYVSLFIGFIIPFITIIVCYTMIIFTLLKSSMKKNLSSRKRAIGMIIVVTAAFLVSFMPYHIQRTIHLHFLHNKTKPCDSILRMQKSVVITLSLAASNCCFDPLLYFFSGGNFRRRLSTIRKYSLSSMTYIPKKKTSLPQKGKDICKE
Format: cell-based
Procedure: The leukotriene antagonist activity of the compounds of this invention is measured by the ability of the compounds to inhibit the leukotriene induced contraction of guinea pig tracheal tissues in vitro. The following methodology was employed: In vitro: Guinea pig (adult male albino Hartley strain) tracheal spiral strips of approximate dimensions 2 to 3 mm cross sectional width and 3.5 cm length were bathed in modified Krebs buffer in jacketed 10 ml tissue bath and continuously aerated with 95% O2 /5% CO2. The tissues were connected via silk suture to force displacement transducers for recording isometric tension. The tissues were equilibrated for 1 hr., pretreated for 15 minutes with meclofenamic acid (1uM) to remove intrinsic prostaglandin responses, and then pretreated for an additional 30 minutes with either the test compound or vehicle control. A cumulative concentration-response curve for LTD4 on triplicate tissues was generated by successive increases in the bath concentration of the LTD4. In order to minimize intertissue variability, the contractions elicited by LTD4 were standardized as a percentage of the maximum response obtained to a reference agonist, carbachol (10uM). Calculations: The averages of the triplicate LTD4 concentration response curves both in the presence and absence of the test compound were plotted on log graph paper. The concentration of LTD4 needed to elicit 30% of the contraction elicited by carbachol was measured and defined as the EC30. The -log KB value for the test compound was determined by the following equations: [formula] […] The antagonist activity of representative compounds of this invention is listed in Table I. The -log KB values were calculated from the above protocol. Where compounds were tested more than once, the -log KB values given here represent the current average data.

Row | Kd | Compound
1 | 316 nM | O=C(O)CCSC(CC(=O)NS(=O)(=O)c1ccccc1)c1ccccc1CCCCCCCCc1ccccc1 (stereo not drawn) [Compound 2, N-[3-(Carboxyethylthio)-3-[2-(8-phenyloctyl)phenyl]]propionylbenzenesulfonamide]
2 | 39.8 nM | O=C(CCSC(c1ccccc1CCCCCCCCc1ccccc1)C(O)C(=O)O)NS(=O)(=O)c1ccccc1 (stereo not drawn) [2-Hydroxy-3-[2-(N-phenylsulfonylcarbamoylethyl)thio]-3-[2-(8 phenyloctyl)phenyl]propanoic acid]
3 | 398 nM | CS(=O)(=O)NC(=O)CC(SCCC(=O)O)c1ccccc1CCCCCCCCc1ccccc1 (stereo not drawn) [Compound 3, N-[3-(carboxyethylthio)-3-[2 (8 phenyloctyl)phenyl]propionyl]methanesulfonamide]
